Here are results for 19 compounds from PubChem BioAssay (NCI).

Test in all cases: NCI tumour cell line growth inhibition, 48 h
Assay [1] deals with T-47D breast.
Assay [2] deals with OVCAR-5 ovarian.
In assay [3] the test system is HCT-116 colon.
For assay [4], the system named is HS 578T breast.
The test system of assay [5] is NCI-H226 lung.
Assay [6] concerns CCRF-CEM leukemia.
The subject of assay [7] is NCI-H522 lung.
The test system of assay [8] is SK-MEL-28 melanoma.
Assay [9] deals with K-562 leukemia.
Assay [10] concerns TK-10 renal.

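Test compounds were applied to cells in 96-well plates for 48 hours at 5 doses. Abbreviation: GI50, concentration required for 50% inhibition of growth. TGI denotes the concentration required for complete inhibition of growth.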

As for `CC1(C)COCN1COC1CCCCC1`, the TGI in assay [1], in assay [2], in [3], in assay [4], in [5] and in [6] was greater than 100 µM in each case. For the same compound, the TGI in assay [7], in [8], in assay [9] and in assay [10] was greater than 100 µM each time.

Consider `O=C1C(Cl)=C(Oc2ccc([N+](=O)[O-])cc2)C(=O)c2c(O)ccc(O)c21`, for which the TGI is greater than 77.7 µM in assay [1]; greater than 100 µM in assay [2]; greater than 100 µM in [3]; greater than 100 µM in assay [4]; greater than 100 µM in assay [5]; 12.9 µM in [6]. In addition, the TGI is 40.2 µM in assay [7], greater than 76.2 µM in assay [8], 40.3 µM in assay [9] and greater than 94 µM in assay [10].

`N#Cc1ccccc1NC(=O)/C(=N\NC(=O)c1ccncc1)C(c1cnc2ccc([N+](=O)[O-])cc2n1)[N+](=O)[O-]` (stereo not given): the TGI in assay [1], in assay [2], in assay [3], in [4], in assay [5] and in [6] was greater than 100 µM each time. For the same compound, the TGI in assay [7], in [8] and in assay [10] was greater than 100 µM throughout.

As for `Nc1ccccc1/C=C\c1ccccc1`, the TGI in [1], in assay [2], in assay [3], in assay [4], in [5] and in assay [6] was greater than 100 µM in each case. The TGI in assay [8], in [9] and in [10] was greater than 100 µM in each case.

As for `CCN(CC)CCOc1ccc(Nc2ncc3cc(-c4ccc(O)cc4)c(=O)n(C)c3n2)cc1`, the GI50 in assay [1] is 12.2 µM; in assay [2] it was 10.7 µM; in assay [4], 0.274 µM; in assay [5], 4.61 µM; in assay [6], 0.845 µM; in assay [7], 2.69 µM. For the same compound, the GI50 is 10.6 µM in assay [8], 0.039 µM in [9] and 3.9 µM in [10]. The TGI in assay [1] was 31.8 µM; in [2], 30.8 µM; in assay [4] it was 19.8 µM; in [5], 22.6 µM; in assay [6] it was greater than 26.4 µM; in assay [7], 27.1 µM. Moreover, the TGI was 27.6 µM in [8] and 8.73 µM in [10].

For `C[C@@H]1O[C@@H](O[C@@H]2[C@@H](O)[C@H](OCCc3ccc(O)c(O)c3)O[C@H](COC(=O)/C=C/c3ccc(O)c(O)c3)[C@H]2O)[C@H](O)[C@H](O)[C@H]1O`, the GI50 in [1] is greater than 100 µM; in [2], greater than 100 µM; in assay [3], 36.1 µM; in assay [4] it was greater than 100 µM; in assay [5], greater than 100 µM; in assay [7] it was greater than 100 µM. In addition, the values for the GI50 in assay [8], in assay [9] and in assay [10] were greater than 100 µM, 36.7 µM and greater than 100 µM, respectively. Further, the TGI is greater than 100 µM in assay [1]; greater than 100 µM in assay [2]; 75.3 µM in assay [3]; greater than 100 µM in assay [4]; greater than 100 µM in assay [5]; greater than 100 µM in assay [7]. Further, the TGI in assay [8], in assay [9] and in assay [10] was greater than 100 µM throughout.

Consider `C/C=C(\C)C(=O)N[C@H]1[C@@H](OC(C)=O)C[C@]2(C)C3CC[C@@]4(C)C(CC[C@@H]4C(C)N(C)C)C3CCC2[C@H]1O` (stereo not given in full), for which the GI50 in assay [1] was 2.06 µM; in [2], 13.8 µM; in assay [3], 1.88 µM; in [4], 12.4 µM; in assay [5], 5.53 µM; in assay [6] it was 3.57 µM. Moreover, the GI50 in assay [7] was 4.99 µM; in [8], 1.83 µM; in [9] it was 1.32 µM; in assay [10] it was 8.32 µM. The TGI in assay [1] was found to be 10.3 µM; in assay [2], 28.2 µM; in assay [3], 4.34 µM; in assay [4] it was 43.1 µM; in [5], 22 µM; in [6], 21.2 µM. In addition, the TGI came to 15.3 µM in assay [7], 3.67 µM in assay [8], 5.02 µM in assay [9] and 24.5 µM in [10].

In the case of `C=C1C(=O)O[C@@H]2C1C[C@@H](O)/C(C)=C/C/C=C(\C)CCC[C@H](C)[C@H]2OC(C)=O` (stereo not given in full), the GI50 is 48.4 µM in [1]; 56.3 µM in assay [2]; 14.1 µM in assay [3]; 29.1 µM in assay [4]; 23.2 µM in [5]; 21.2 µM in [6]. Moreover, the figures for the GI50 in assay [7], in [8] and in assay [10] were 22.7 µM, 34.5 µM and 24.2 µM, respectively. Also, the TGI in assay [1] is greater than 100 µM; in assay [2] it was greater than 100 µM; in assay [3] it was 27 µM; in [4], 76 µM; in assay [5] it was 44.3 µM; in assay [6], 40.2 µM. The figures for the TGI in [7], in [8] and in [10] were 79.9 µM, greater than 100 µM and 52.7 µM, respectively.

`Nc1nc(Nc2ccc3c(c2)CC[C@@H](N2CCCC2)CC3)nn1-c1cc2c(nn1)-c1ccccc1CCC2`: the GI50 is 2.16 µM in [1]; 1.63 µM in assay [2]; 1.5 µM in assay [3]; 1.79 µM in assay [4]; 0.478 µM in assay [6]; 1.75 µM in [7]. The figures for the GI50 in assay [8] and in assay [10] were 1.77 µM and 1.35 µM, respectively. In addition, the TGI in assay [1] is 5.1 µM; in [2], 3.29 µM; in assay [3] it was 3.08 µM; in [4] it was 4.86 µM; in assay [6] it was 2.53 µM; in assay [7] it was 3.79 µM. Moreover, the results for the TGI in assay [8] and in assay [10] were 3.27 µM and 2.97 µM, respectively.

For `CCCCCCCCCNCCCCCCCCC`, the GI50 in [1] was 1.91 µM; in [2], 1.88 µM; in [3], 1.77 µM; in assay [4] it was 1.83 µM; in assay [5], 1.83 µM; in assay [7] it was 1.54 µM. Besides, the GI50 was 1.76 µM in [8] and 1.75 µM in assay [10]. Moreover, the TGI in assay [1] is 3.59 µM; in assay [2], 3.91 µM; in assay [3] it was 3.16 µM; in [4] it was 4.16 µM; in [5], 3.61 µM; in assay [7] it was 3.08 µM. The values for the TGI in assay [8] and in assay [10] were 3.29 µM and 3.23 µM, respectively.

For `O=C(/C=C/C=C/c1ccccc1)CCc1ccccc1`, the TGI in assay [1], in [2], in [3], in [4], in assay [5] and in assay [6] was greater than 100 µM each time. Further, the TGI in assay [7] and in [10] was greater than 100 µM throughout.

Turning to `Fc1ccc(Oc2nccc(-c3c(-c4ccc(F)cc4)ncn3C3CCNCC3)n2)cc1`, the GI50 in [1] was greater than 18 µM; in [2], greater than 25 µM; in assay [3], greater than 25 µM; in [4], greater than 24 µM; in assay [7], greater than 25 µM; in assay [8] it was greater than 25 µM. Also, the GI50 in assay [9] is greater than 25 µM; in assay [10] it was greater than 19.9 µM. The TGI in [1], in [2], in assay [3], in assay [4], in assay [7] and in assay [8] was greater than 25 µM throughout. The TGI in assay [9] and in [10] was greater than 25 µM each time.

In the case of `Cc1ccccc1C(=O)C#Cc1cn(C2CC(O)C(CO)O2)c(=O)[nH]c1=O` (stereo not given), the TGI in [1] was greater than 100 µM; in [3], greater than 100 µM; in [4], greater than 100 µM; in assay [5], greater than 100 µM; in [6], 67.3 µM; in assay [7] it was 28.7 µM. The TGI in assay [8], in assay [9] and in [10] was greater than 100 µM each time.

With `C=C1CC[C@@]2(C#N)[C@H]3[C@H](CC[C@@H]2C)[C@@H](C)C[C@@H](CC(C)(C)C#N)[C@H]13`, the GI50 is 2.24 µM in assay [1]; 0.229 µM in [3]; 0.637 µM in [4]; 2.43 µM in assay [5]; 1.62 µM in assay [6]; 10.8 µM in [7]. Besides, the GI50 is 2.63 µM in [8], 0.46 µM in assay [9] and 0.969 µM in [10]. Further, the TGI came out at 10.9 µM in assay [1]; 11.2 µM in [3]; 55 µM in [4]; 24.1 µM in assay [5]; 33.5 µM in assay [6]; 57.9 µM in assay [7]. Also, the values for the TGI in assay [8], in [9] and in assay [10] were 44.2 µM, greater than 100 µM and 31.5 µM, respectively.

For the compound `c1cc2c(cc1C(N1CCNCC1)N1CCNCC1)OCO2`, the TGI in [1], in [2], in assay [3], in assay [4], in [5] and in [7] was greater than 100 µM in each case. The TGI in assay [8] is greater than 100 µM; in [9], 5.6 µM; in assay [10], greater than 100 µM.

Regarding `COc1ccc2nc(-c3ccccc3)cc(Nc3ccc(C(C)=O)cc3)c2c1`, the GI50 in [1] is 15.7 µM; in assay [2], 6.3 µM; in assay [3], 1.54 µM; in assay [4] it was 8.2 µM; in assay [5], 0.94 µM; in [7], 17.7 µM. The GI50 is 29.5 µM in assay [8], 1.14 µM in [9] and 5.24 µM in assay [10]. Further, the TGI in assay [1] is greater than 100 µM; in assay [2], 19.1 µM; in [3] it was 4.62 µM; in assay [4], 27.1 µM; in assay [5] it was 3.46 µM; in assay [7] it was greater than 100 µM. The TGI in assay [8] was greater than 100 µM; in [9], 11.7 µM; in [10], 17.2 µM.

For `CC1(C)OC[C@@H]([C@@]2(CO[Si](C)(C)C(C)(C)C)CC=CC(=O)O2)O1`, the GI50 is 24.9 µM in [1]; 28.6 µM in assay [2]; 17.6 µM in [3]; 30.4 µM in assay [4]; 26.2 µM in [6]; 30.2 µM in assay [7]. Also, the GI50 is 21.8 µM in [8], 26.7 µM in assay [9] and 18.3 µM in assay [10]. Also, the TGI was greater than 100 µM in assay [1]; 69.3 µM in [2]; 44.6 µM in assay [3]; 89.4 µM in assay [4]; greater than 100 µM in [6]; 86.2 µM in [7]. For the same compound, the TGI in [8] is 48.9 µM; in assay [9], greater than 100 µM; in assay [10] it was 40.7 µM.

For `O=C(c1cc(F)c(Cl)cc1Cl)N1N=C(c2ccccc2)CC1(O)c1ccccc1` (stereo not given), the GI50 in assay [1] was 18.1 µM; in [2] it was 23.3 µM; in assay [3] it was 10.1 µM; in assay [4] it was 23.8 µM; in [5] it was 17.3 µM; in assay [7], 14.5 µM. The GI50 in [8] is 16.2 µM; in assay [9] it was 12.2 µM; in assay [10], 30.8 µM. Further, the TGI in [1] was determined as 53.7 µM; in [2], 70.9 µM; in assay [3], 21.7 µM; in assay [4], 58.8 µM; in assay [5], 36.5 µM; in [7], 36.9 µM. Moreover, the TGI worked out at 31.6 µM in assay [8], 27.2 µM in assay [9] and 80.8 µM in [10].

As to `COC(=O)COc1ccc(/C=C2\N=C(c3ccccc3)N(c3cc(C(F)(F)F)ccc3Cl)C2=O)cc1`, the GI50 is 82.9 µM in assay [1]; greater than 100 µM in assay [2]; 38.4 µM in [3]; 83.7 µM in assay [4]; 52.2 µM in assay [5]; 24.1 µM in [7]. The values for the GI50 in assay [8], in assay [9] and in assay [10] were greater than 100 µM, 47.3 µM and greater than 100 µM, respectively. For the same compound, the TGI is greater than 100 µM in assay [1]; greater than 100 µM in assay [2]; greater than 100 µM in assay [3]; greater than 100 µM in [4]; greater than 100 µM in assay [5]; 68.8 µM in assay [7]. For the same compound, the TGI in assay [8], in [9] and in [10] was greater than 100 µM throughout.
